From patent US20110118262A1, “Pyrrolidinyl and Piperidinyl Compounds Useful as NHE-1 Inhibitiors” (BOEHRINGER INGELHEIM INTERNATIONAL GMBH, priority 2008, published 2011) come the findings set out here.

Each structure is given as a SMILES string.

The experiment deals with T1, NHE-1 (Homo sapiens, UniProt P19634).
T1 construct: endogenous in cells; host or cells: HT-29
Briefly: Evaluation of NHE-1 Inhibition (pHi) in HT-29 cells. In kind it is cell-based. The note with it: BCECF dye, 50% inhibition of the intracellular pH recovery, read-out: NHE1 HT29 pHi IC50. The gist of the method: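 Intracellular pH measured with BCECF in HT-29 cells after 24 h culture. Cells dye-loaded 30 min at 37° C, then acid-loaded with NH4Cl-containing choline buffer (pH 7.5) for 30 min at RT. Compounds added on an FDSS6000 fluorescence reader.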

T1 sequence (P19634 whole entry): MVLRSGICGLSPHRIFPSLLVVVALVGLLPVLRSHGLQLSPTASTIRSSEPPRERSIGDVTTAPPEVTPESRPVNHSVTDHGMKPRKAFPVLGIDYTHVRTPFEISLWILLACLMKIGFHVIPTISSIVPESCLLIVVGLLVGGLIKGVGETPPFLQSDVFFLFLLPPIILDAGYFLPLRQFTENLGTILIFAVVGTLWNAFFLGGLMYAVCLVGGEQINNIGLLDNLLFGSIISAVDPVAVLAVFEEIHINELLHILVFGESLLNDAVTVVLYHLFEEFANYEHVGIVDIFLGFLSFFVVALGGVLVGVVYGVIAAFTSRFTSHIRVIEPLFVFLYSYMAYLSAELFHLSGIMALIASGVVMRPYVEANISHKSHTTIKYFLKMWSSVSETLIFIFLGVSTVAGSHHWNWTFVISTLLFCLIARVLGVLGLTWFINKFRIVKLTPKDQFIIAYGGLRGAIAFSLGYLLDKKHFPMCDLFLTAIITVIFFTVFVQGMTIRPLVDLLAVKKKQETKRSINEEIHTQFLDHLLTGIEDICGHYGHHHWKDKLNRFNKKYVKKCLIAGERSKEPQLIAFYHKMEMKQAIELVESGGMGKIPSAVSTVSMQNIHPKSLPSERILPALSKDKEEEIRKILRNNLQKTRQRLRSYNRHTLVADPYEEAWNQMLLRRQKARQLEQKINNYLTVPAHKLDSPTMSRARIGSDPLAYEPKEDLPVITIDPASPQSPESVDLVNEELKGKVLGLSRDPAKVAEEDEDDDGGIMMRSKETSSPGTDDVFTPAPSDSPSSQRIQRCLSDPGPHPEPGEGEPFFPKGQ

As to `CS(=O)(=O)c1ccc(Oc2ccc(C(=O)N3CCC(c4ccc(C(=O)NC(=N)N)cc4C(F)(F)F)CC3)cn2)cc1` [N-(4-{1-[6-(4-Methanesulfonyl-phenoxy)-pyridine-3-carbonyl]-piperidin-4-yl}-3-trifluoromethyl-benzoyl)-guanidine], the IC50 came to 54 nM.

`COc1cc(C(=O)N2CCC(c3ccc(C(=O)NC(=N)N)cc3C(F)(F)F)CC2)ccn1` [N-{4-[1-(2-Methoxy-pyridine-4-carbonyl)-piperidin-4-yl]-3-trifluoromethyl-benzoyl}-guanidine]: the IC50 is 40 nM.

With `N=C(N)NC(=O)c1ccc(C2CCN(C(=O)c3ccc4c(c3)CCO4)CC2)c(C(F)(F)F)c1` [N-{4-[1-(2,3-Dihydro-benzofuran-5-carbonyl)-piperidin-4-yl]-3-trifluoromethyl-benzoyl}-guanidine], the IC50 was 23 nM.

As to `Cc1cc(C(=O)N2CCC(c3ccc(C(=O)NC(=N)N)cc3C(F)(F)F)CC2)nn1C` [N-{4-[1-(1,5-Dimethyl-1H-pyrazole-3-carbonyl)-piperidin-4-yl]-3-trifluoromethyl-benzoyl}-guanidine], the IC50 stood at 20 nM.

In the case of `N=C(N)NC(=O)c1ccc(C2CCN(C(=O)c3ccccc3Cl)CC2)c(C(F)(F)F)c1` [N-{4-[1-(2-Chloro-benzoyl)-piperidin-4-yl]-3-trifluoromethyl-benzoyl}-guanidine], the IC50 worked out at 119 nM.

With `CNS(=O)(=O)c1ccc(C(=O)N2CCC(c3ccc(C(=O)NC(=N)N)cc3C(F)(F)F)CC2)cc1` [4-[4-(4-Guanidinocarbonyl-2-trifluoromethyl-phenyl)-piperidine-1-carbonyl]-N-methyl-benzenesulfonamide], the concentration for half-maximal inhibition (IC50) stood at 51 nM.

`N=C(N)NC(=O)c1ccc(C2CCN(C(=O)c3ccc(-n4ccnc4)cc3)CC2)c(C(F)(F)F)c1` [N-{4-[1-(4-Imidazol-1-yl-benzoyl)-piperidin-4-yl]-3-trifluoromethyl-benzoyl}-guanidine]: the IC50 is 71 nM.

With `N=C(N)NC(=O)c1ccc(C2CCN(C(=O)c3cn4ccccc4n3)CC2)c(C(F)(F)F)c1` [N-{4-[1-(Imidazo[1,2-a]pyridine-2-carbonyl)-piperidin-4-yl]-3-trifluoromethyl-benzoyl}-guanidine], the IC50 amounted to 17 nM.

As to `N=C(N)NC(=O)c1ccc(C2CCN(C(=O)C(N)Cc3ccccc3)CC2)c(C(F)(F)F)c1` (stereo not drawn) [N-{4-[1-(2-Amino-3-phenyl-propionyl)-piperidin-4-yl]-3-trifluoromethyl-benzoyl}-guanidine], the IC50 came to 19 nM.

`N=C(N)NC(=O)c1ccc(C2CCN(C(=O)c3ccccc3F)CC2)c(C(F)(F)F)c1` [N-{4-[1-(2-Fluoro-benzoyl)-piperidin-4-yl]-3-trifluoromethyl-benzoyl}-guanidine]: the IC50 was determined as 125 nM.

For `N=C(N)NC(=O)c1ccc(C2CCN(C(=O)c3ccc(-n4cccn4)cc3)CC2)c(C(F)(F)F)c1` [N-{4-[1-(4-Pyrazol-1-yl-benzoyl)-piperidin-4-yl]-3-trifluoromethyl-benzoyl}-guanidine], the IC50 turned out to be 88 nM.

For the compound `N=C(N)NC(=O)c1ccc(C2CCN(C(=O)c3cncc(-c4ccccc4)c3)CC2)c(C(F)(F)F)c1` [N-{4-[1-(5-Phenyl-pyridine-3-carbonyl)-piperidin-4-yl]-3-trifluoromethyl-benzoyl}-guanidine], the IC50 turned out to be 204 nM.

Turning to `CS(=O)(=O)c1ccccc1C(=O)N1CCC(c2ccc(C(=O)NC(=N)N)cc2C(F)(F)F)CC1` [N-{4-[1-(2-Methanesulfonyl-benzoyl)-piperidin-4-yl]-3-trifluoromethyl-benzoyl}-guanidine], the IC50 was determined as 69 nM.

In the case of `Cn1cnc(C[C@@H](N)C(=O)N2CCC(c3ccc(C(=O)NC(=N)N)cc3C(F)(F)F)CC2)c1` [(R)-N-(4-{1-[-2--Amino-3-(1-methyl-1H-imidazol-4-yl)-propionyl]-piperidin-4-yl}-3-trifluoromethyl-benzoyl)-guanidine], the IC50 was found to be 43 nM.

In the case of `CC(C)(C)C(=O)N1CCC(c2ccc(C(=O)NC(=N)N)cc2C(F)(F)F)CC1` [N-{4-[1-(2,2-Dimethyl-propionyl)-piperidin-4-yl]-3-trifluoromethyl-benzoyl}-guanidine], the 50% inhibitory concentration (IC50) is 68 nM.

As to `N=C(N)NC(=O)c1ccc(C2CCN(C(=O)C3COCCN3)CC2)c(C(F)(F)F)c1` (stereo not drawn) [N-{4-[1-(Morpholine-3-carbonyl)-piperidin-4-yl]-3-trifluoromethyl-benzoyl}-guanidine], the 50% inhibitory concentration (IC50) is 35 nM.

For the compound `N=C(N)NC(=O)c1ccc(C2CCN(C(=O)c3cccc(-c4ccccn4)c3)CC2)c(C(F)(F)F)c1` [N-{4-[1-(3-Pyridin-2-yl-benzoyl)-piperidin-4-yl]-3-trifluoromethyl-benzoyl}-guanidine], the IC50 came out at 147 nM.

As for `CNS(=O)(=O)c1ccc(Oc2ccc(C(=O)N3CCC(c4ccc(C(=O)NC(=N)N)cc4C(F)(F)F)CC3)cn2)cc1` [4-{5-[4-(4-Guanidinocarbonyl-2-trifluoromethyl-phenyl)-piperidine-1-carbonyl]-pyridin-2-yloxy}-N-methyl-benzenesulfonamide], the half-inhibitory concentration (IC50) worked out at 92 nM.

Consider `N=C(N)NC(=O)c1ccc(C2CCN(C(=O)Cc3ccc(F)cc3)CC2)c(C(F)(F)F)c1` [N-(4-{1-[2-(4-Fluoro-phenyl)-acetyl]-piperidin-4-yl}-3-trifluoromethyl-benzoyl)-guanidine], for which the IC50 is 135 nM.

As for `N=C(N)NC(=O)c1ccc(C2CCN(C(=O)c3cccnc3)CC2)c(C(F)(F)F)c1` [N-{4-[1-(Pyridine-3-carbonyl)-piperidin-4-yl]-3-trifluoromethyl-benzoyl}-guanidine], the IC50 was 10 nM.

With `N=C(N)NC(=O)c1ccc(C2CCN(C(=O)c3ccncn3)CC2)c(C(F)(F)F)c1` [N-{4-[1-(Pyrimidine-4-carbonyl)-piperidin-4-yl]-3-trifluoromethyl-benzoyl}-guanidine], the IC50 was 19 nM.

In the case of `CN(C)S(=O)(=O)c1ccc(C(=O)N2CCC(c3ccc(C(=O)NC(=N)N)cc3C(F)(F)F)CC2)cc1` [4-[4-(4-Guanidinocarbonyl-2-trifluoromethyl-phenyl)-piperidine-1-carbonyl]-N,N-dimethyl-benzenesulfonamide], the IC50 is 36 nM.

As for `N=C(N)NC(=O)c1ccc(C2CCN(C(=O)c3cncc(-c4ccc(F)cc4)c3)CC2)c(C(F)(F)F)c1` [N-(4-{1-[5-(4-Fluoro-phenyl)-pyridine-3-carbonyl]-piperidin-4-yl}-3-trifluoromethyl-benzoyl)-guanidine], the half-maximal inhibitory concentration (IC50) is 185 nM.

As for `COc1cc(C2CCN(C(=O)[C@H](OC(C)=O)c3ccccc3)CC2)c(C(F)(F)F)cc1C(=O)NC(=N)N` [(R)-Acetic acid 2-[4-(4-guanidinocarbonyl-5-methoxy-2-trifluoromethyl-phenyl)-piperidin-1-yl]-2-oxo-1-phenyl-ethyl ester], the IC50 stood at 110 nM.

As to `N=C(N)NC(=O)c1ccc(C2CCN(C(=O)c3ccco3)C2)c(C(F)(F)F)c1` (stereo not drawn) [N-{4-[1-(Furan-2-carbonyl)-pyrrolidin-3-yl]-3-trifluoromethyl-benzoyl}-guanidine], the half-inhibitory concentration (IC50) turned out to be 11 nM.

Take `CC(C)CC(=O)N1CCC(c2ccc(C(=O)NC(=N)N)cc2C(F)(F)F)CC1` [N-{4-[1-(3-Methyl-butyryl)-piperidin-4-yl]-3-trifluoromethyl-benzoyl}-guanidine]: the IC50 came to 49 nM.

Regarding `CS(=O)(=O)c1cccc(C(=O)N2CCC(c3ccc(C(=O)NC(=N)N)cc3C(F)(F)F)CC2)c1` [N-{4-[1-(3-Methanesulfonyl-benzoyl)-piperidin-4-yl]-3-trifluoromethyl-benzoyl}-guanidine], the 50% inhibitory concentration (IC50) was found to be 63 nM.

Take `N=C(N)NC(=O)c1ccc(C2CCN(C(=O)c3ccc(N4CCCC4)cc3)CC2)c(C(F)(F)F)c1` [N-{4-[1-(4-Pyrrolidin-1-yl-benzoyl)-piperidin-4-yl]-3-trifluoromethyl-benzoyl}-guanidine]: the half-inhibitory concentration (IC50) was 250 nM.

`N=C(N)NC(=O)c1ccc(C2CCN(C(=O)c3cccc4ccccc34)CC2)c(C(F)(F)F)c1` [N-{4-[1-(Naphthalene-1-carbonyl)-piperidin-4-yl]-3-trifluoromethyl-benzoyl}-guanidine]: the half-maximal inhibitory concentration (IC50) was determined as 260 nM.

In the case of `N=C(N)NC(=O)c1ccc(C2CCN(C(=O)C3(N)CCc4ccccc43)CC2)c(C(F)(F)F)c1` (stereo not drawn) [N-{4-[1-(1-Amino-indane-1-carbonyl)-piperidin-4-yl]-3-trifluoromethyl-benzoyl}-guanidine], the IC50 is 18 nM.

In the case of `CCC(=O)N1CCC(c2ccc(C(=O)NC(=N)N)cc2S(C)(=O)=O)CC1` [N-{3-methanesulfonyl-4-[1-propionyl-piperidin-4-yl]-benzoyl}-guanidine], the half-inhibitory concentration (IC50) worked out at 21 nM.

`Cn1cnc(C[C@H](N)C(=O)N2CCC(c3ccc(C(=O)NC(=N)N)cc3C(F)(F)F)CC2)c1` [(S)-N-(4-{1-[2-Amino-3-(1-methyl-1H-imidazol-4-yl)-propionyl]-piperidin-4-yl}-3-trifluoromethyl-benzoyl)-guanidine]: the IC50 turned out to be 49 nM.

Consider `Cc1cc(C2CCN(C(=O)CN(C)C)CC2)c(C(F)(F)F)cc1C(=O)NC(=N)N` [N-{4-[1-(2-dimethylamino-acetyl)-piperidin-4-yl]-2-methyl-5-trifluoromethyl-benzoyl}-guanidine], for which the IC50 came out at 6 nM.

As to `N=C(N)NC(=O)c1ccc(C2CCN(C(=O)C3(N)CCCC3)CC2)c(C(F)(F)F)c1` [N-{4-[1-(1-Amino-cyclopentanecarbonyl)-piperidin-4-yl]-3-trifluoromethyl-benzoyl}-guanidine], the concentration for half-maximal inhibition (IC50) came out at 2 nM.

Take `CCC(=O)N1CCC(c2ccc(C(=O)NC(=N)N)cc2C(F)(F)F)CC1` [N-[4-(1-Propionyl-piperidin-4-yl)-3-trifluoromethyl-benzoyl]-guanidine]: the IC50 stood at 12 nM.

With `C[S+]([O-])c1ccccc1C(=O)N1CCC(c2ccc(C(=O)NC(=N)N)cc2C(F)(F)F)CC1` (stereo not drawn) [N-{4-[1-(2-Methanesulfinyl-benzoyl)-piperidin-4-yl]-3-trifluoromethyl-benzoyl}-guanidine], the IC50 amounted to 54 nM.
